Assay results reported in ChEMBL document CHEMBL1138436, “Biological activity and chemistry of taxoids from the Japanese yew, Taxus cuspidata” (J Nat Prod, 2004).

Key:
Format in all cases: functional
DU-145 = experiment: Growth inhibition of human DU145 cells
SF-268 = experiment: Growth inhibition of human SF268 cells
OVCAR-3 = experiment: Growth inhibition of human OVCAR-3 cells
KM12 = experiment: Growth inhibition of human KM12 cells
SK-OV-3 = experiment: Growth inhibition of human SKOV3 cells
HCT-116 = experiment: Growth inhibition of human HCT116 cells
MDA-MB-231 = experiment: Growth inhibition of human MDA-MB-231 cells
OVCAR-4 = experiment: Growth inhibition of human OVCAR4 cells
MKN-74 = experiment: Growth inhibition of human MKN74 cells
MKN-45 = experiment: Growth inhibition of human MKN45 cells
U-251 = experiment: Growth inhibition of human U251 cells
LOX IMVI = experiment: Growth inhibition of human LOXIMVI cells
SF-539 = experiment: Growth inhibition of human SF539 cells
[1] = Growth inhibition of human HBC5 cells
DMS-273 = experiment: Growth inhibition of human DMS273 cells
MKN-28 = experiment: Growth inhibition of human MKN28 cells
MKN-7 = experiment: Growth inhibition of human MKN7 cells
PC-3 = experiment: Growth inhibition of human PC3 cells
NCI-H522 = experiment: Growth inhibition of human NCI-H522 cells
A549 = experiment: Growth inhibition of human A549 cells
OVCAR-5 = experiment: Growth inhibition of human OVCAR5 cells
ACHN = experiment: Growth inhibition of human ACHN cells
St-4 = experiment: Growth inhibition of human St-4 cells
[2] = Growth inhibition of human MKN1 cells
HCT-15 = experiment: Growth inhibition of human HCT15 cells
SF-295 = experiment: Growth inhibition of human SF295 cells
HCC 2998 = experiment: Growth inhibition of human HCC2998 cells
HT-29 = experiment: Growth inhibition of human HT-29 cells
[3] = read-out: LC50 (the source's name)
[4] = read-out: pLC50 (the source's name) (converted)

C=C1[C@@H](OC(=O)/C=C/c2ccccc2)C[C@H](OC(C)=O)[C@]2(C)[C@@H]1C[C@]1(C(C)(C)O)C[C@H](OC(C)=O)C(C)=C1[C@@H](OC(=O)c1ccccc1)[C@@H]2OC(C)=O [TAXUSPINE A]
> 100 µM: TGI (DU-145) | CC50 (DU-145; [3]) | TGI (SF-268) | CC50 (SF-268; [3]) | CC50 (OVCAR-3; [3]) | TGI (OVCAR-3; read-out: TGI) | CC50 (KM12; [3]) | TGI (KM12; read-out: TGI) | CC50 (SK-OV-3; [3]) | TGI (SK-OV-3; read-out: TGI) | TGI (HCT-116) | CC50 (HCT-116; [3]) | CC50 (MDA-MB-231; [3]) | TGI (MDA-MB-231; read-out: TGI) | CC50 (OVCAR-4; [3]) | TGI (OVCAR-4; read-out: TGI) | GI50 (MKN-74; read-out: GI50) | CC50 (MKN-74; [3]) | GI50 (MKN-45; read-out: GI50) | CC50 (MKN-45; [3]) | TGI (MKN-45; read-out: TGI) | TGI (U-251) | CC50 (U-251; [3]) | CC50 (LOX IMVI; [3]) | TGI (LOX IMVI; read-out: TGI) | CC50 (SF-539; [3]) | TGI (SF-539; read-out: TGI) | CC50 [1, 3] | TGI ([1]; read-out: TGI) | CC50 (DMS-273; [3]) | TGI (DMS-273; read-out: TGI) | CC50 (MKN-28; [3]) | TGI (MKN-28; read-out: TGI) | TGI (MKN-7) | CC50 (MKN-7; [3]) | CC50 (PC-3; [3]) | TGI (PC-3; read-out: TGI) | CC50 (NCI-H522; [3]) | CC50 (A549; [3]) | TGI (A549; read-out: TGI) | CC50 (OVCAR-5; [3]) | TGI (OVCAR-5; read-out: TGI) | CC50 (ACHN; [3]) | TGI (ACHN; read-out: TGI) | CC50 (St-4; [3]) | TGI (St-4; read-out: TGI) | CC50 ([2]; MKN-1, read-out: LC50 (the source's name)) | TGI ([2]; MKN-1, read-out: TGI) | CC50 (HCT-15; [3]) | TGI (HCT-15; read-out: TGI) | CC50 (SF-295; [3]) | TGI (SF-295; read-out: TGI) | TGI (HCC 2998) | CC50 (HCC 2998; [3]) | CC50 (HT-29; [3]) | TGI (HT-29; read-out: TGI)
22.4 µM: GI50 (OVCAR-4; read-out: pGI50 (converted))
5.1 µM: GI50 (MKN-7; read-out: GI50)
24 µM: GI50 (St-4; read-out: GI50) | GI50 (St-4; read-out: pGI50 (converted))
5.6 µM: GI50 (HCT-116; read-out: GI50)
43.7 µM: GI50 (HT-29; read-out: pGI50 (converted))
6.46 µM: GI50 (KM12; read-out: pGI50 (converted))
81.3 µM: TGI (NCI-H522; read-out: pTGI (converted))
4.37 µM: GI50 (DMS-273; read-out: pGI50 (converted))
100 µM: GI50 (DU-145; read-out: GI50) | GI50 (DU-145; read-out: pGI50 (converted)) | CC50 (DU-145; [4]) | CC50 (SF-268; [4]) | CC50 (OVCAR-3; [4]) | TGI (OVCAR-3; read-out: pTGI (converted)) | CC50 (KM12; [4]) | TGI (KM12; read-out: pTGI (converted)) | GI50 (SK-OV-3; read-out: GI50) | GI50 (SK-OV-3; read-out: pGI50 (converted)) | CC50 (SK-OV-3; [4]) | TGI (SK-OV-3; read-out: pTGI (converted)) | CC50 (HCT-116; [4]) | CC50 (MDA-MB-231; [4]) | TGI (MDA-MB-231; read-out: pTGI (converted)) | CC50 (OVCAR-4; [4]) | TGI (OVCAR-4; read-out: pTGI (converted)) | CC50 (MKN-74; [4]) | TGI (MKN-74; read-out: pTGI (converted)) | GI50 (MKN-45; read-out: pGI50 (converted)) | CC50 (MKN-45; [4]) | TGI (MKN-45; read-out: pTGI (converted)) | TGI (LOX IMVI; read-out: pTGI (converted)) | GI50 (SF-539; read-out: GI50) | GI50 (SF-539; read-out: pGI50 (converted)) | CC50 (SF-539; [4]) | TGI (SF-539; read-out: pTGI (converted)) | GI50 ([1]; read-out: GI50) | TGI ([1]; read-out: pTGI (converted)) | TGI (DMS-273; read-out: pTGI (converted)) | CC50 (MKN-28; [4]) | TGI (MKN-28; read-out: pTGI (converted)) | TGI (PC-3; read-out: pTGI (converted)) | CC50 (A549; [4]) | TGI (A549; read-out: pTGI (converted)) | CC50 (OVCAR-5; [4]) | TGI (OVCAR-5; read-out: pTGI (converted)) | TGI (ACHN; read-out: pTGI (converted)) | CC50 (St-4; [4]) | TGI (St-4; read-out: pTGI (converted)) | CC50 ([2]; MKN-1, read-out: pLC50 (the source's name) (converted)) | TGI ([2]; MKN-1, read-out: pTGI (converted)) | CC50 (HCT-15; [4]) | TGI (HCT-15; read-out: pTGI (converted)) | TGI (SF-295; read-out: pTGI (converted)) | TGI (HT-29; read-out: pTGI (converted))
32 µM: GI50 (OVCAR-5; read-out: GI50)
3.09 µM: GI50 (NCI-H522; read-out: pGI50 (converted))
93.3 µM: GI50 ([2]; MKN-1, read-out: pGI50 (converted))
9.55 µM: GI50 (MKN-74; read-out: pGI50 (converted)) | GI50 (A549; read-out: pGI50 (converted))
32.4 µM: GI50 (OVCAR-5; read-out: pGI50 (converted))
81 µM: TGI (NCI-H522; read-out: TGI)
29 µM: GI50 (HCT-15; read-out: GI50)
3.1 µM: GI50 (NCI-H522; read-out: GI50)
93 µM: GI50 ([2]; MKN-1, read-out: GI50)
28.8 µM: GI50 (HCT-15; read-out: pGI50 (converted))
43 µM: GI50 (SF-268; read-out: GI50) | GI50 (HT-29; read-out: GI50)
71 µM: GI50 (U-251; read-out: GI50)
11.7 µM: GI50 (MKN-28; read-out: pGI50 (converted))
16 µM: GI50 (MDA-MB-231; read-out: GI50)
16.2 µM: GI50 (MDA-MB-231; read-out: pGI50 (converted))
22 µM: GI50 (OVCAR-4; read-out: GI50)
38 µM: GI50 (LOX IMVI; read-out: GI50) | GI50 (LOX IMVI; read-out: pGI50 (converted))
25.1 µM: GI50 ([1]; read-out: pGI50 (converted))
4.2 µM: GI50 (DMS-273; read-out: GI50)
9.6 µM: GI50 (A549; read-out: GI50)
10 µM: GI50 (SF-295; read-out: GI50)
87.1 µM: GI50 (ACHN; read-out: pGI50 (converted))
5 µM: GI50 (OVCAR-3; read-out: GI50)
26.3 µM: GI50 (HCC 2998; read-out: pGI50 (converted))
5.62 µM: GI50 (HCT-116; read-out: pGI50 (converted))
5.25 µM: GI50 (PC-3; read-out: pGI50 (converted))
5.13 µM: GI50 (MKN-7; read-out: pGI50 (converted))
6.4 µM: GI50 (KM12; read-out: GI50)
11 µM: GI50 (SF-295; read-out: pGI50 (converted))
87 µM: GI50 (ACHN; read-out: GI50)
5.2 µM: GI50 (PC-3; read-out: GI50)
12 µM: GI50 (MKN-28; read-out: GI50)
26 µM: GI50 (HCC 2998; read-out: GI50)
5.01 µM: GI50 (OVCAR-3; read-out: pGI50 (converted))
70.8 µM: GI50 (U-251; read-out: pGI50 (converted))
42.7 µM: GI50 (SF-268; read-out: pGI50 (converted))
